From patent publication US8940313B2, “Tyrosine-based prodrugs of antiviral agents” (priority 2010, dated 2015) come the findings set out here.

Data set [1] can be described thus: Enzymatic stability: hydrolysis in rat intestinal homogenate, pH 6.5, 37° C., LC-MS. The following applies: per diastereoisomer, st = stable; for half-life: rat, intestinal homogenate, pH 6.5, T1/2 Int. Hom.
The nature of data set [2]: Chemical stability: hydrolysis in 200 mM phosphate buffer, 37° C., LC-MS. Conditions: per diastereoisomer, st = stable.
Another data set deals with cowpox virus. Put plainly: microbe, parasite or virus in culture. Format: cell-based. Conditions: read-out: IC50 Cow Pox.
The next data set relates to vaccinia virus. Put plainly: microbe, parasite or virus in culture. The following applies: read-out: IC50 Vaccinia. Format: cell-based.
Data set [3] deals with human cytomegalovirus (HCMV). Put plainly: microbe, parasite or virus in culture. Format: cell-based.
Another data set has as its system KB cells. Nature of the data set: cells. Format: cell-based. The following applies: read-out: IC50 KB.
The next data set concerns herpes simplex 1 (HSV-1). Nature of the data set: microbe, parasite or virus in culture. Format: cell-based.
For another data set, the system named is HFF cells. Put plainly: cells. Format: cell-based, human. The following applies: read-out: IC50 HFF.
The test system of data set [4] is poxviruses (vaccinia and cowpox viruses). Format: cell-based.
The mark [5] stands for this setting: pH 7.4, T1/2 Buffer pH 7.4, 200 mM phosphate buffer pH 7.4, 37° C.
The mark [6] stands for this setting: Human alphaherpesvirus 1, read-out: IC50 HSV-1.
Where [7] appears, read: Human betaherpesvirus 5, read-out: IC50 HCMV.

SMILES strings stand for the structures. pIC50: −log10 of the molar value. Several values for one entry are separate records, joined by “and”; a condition that tells them apart may be missing. Equal values may be shown once. Read-outs that look alike come from different tables or passages of the source.

On to `COC(=O)[C@@H](N)Cc1ccc(OP2(=O)CO[C@@H](Cn3cnc4c(N)ncnc43)CO2)cc1` (single isomer, unassigned) [1a (S,R)], for which the half-life in data set [1] is less than 28 min.
For `COC(=O)[C@@H](N)Cc1ccc(OP2(=O)CO[C@@H](Cn3cnc4c(N)ncnc43)CO2)cc1` (single isomer, unassigned) [1a (S,S)], the “T1/2 Int. Hom.” value in [1] is less than 28 min.
For `COC(=O)[C@H](Cc1ccc(OP2(=O)CO[C@@H](Cn3cnc4c(N)ncnc43)CO2)cc1)NC(=O)[C@@H](N)C(C)C` (single isomer, unassigned) [1f (S,R)], in data set [1], the half-life was less than 28 min.
`COC(=O)[C@H](Cc1ccc(OP2(=O)CO[C@@H](Cn3cnc4c(N)ncnc43)CO2)cc1)NC(=O)[C@@H](N)C(C)C` (single isomer, unassigned) [1f (S,S)] yielded a half-life in [2] (pH 6.5, T1/2 Buffer pH 6.5, 200 mM phosphate buffer pH 6.5, 37° C.) of 67 min. Besides, the “T1/2 Int. Hom.” value in data set [1] is less than 28 min.
As to `COC(=O)[C@@H](N)Cc1ccc(OP2(=O)CO[C@@H](Cn3ccc(N)nc3=O)CO2)cc1` (single isomer, unassigned) [2a (S,R)], the half-life in data set [1] is less than 30 min.
In [2] (setting [5]), `COC(=O)[C@@H](N)Cc1ccc(OP2(=O)CO[C@@H](Cn3ccc(N)nc3=O)CO2)cc1` (single isomer, unassigned) [2a (S,S)] had a half-life of 19 min. In data set [1], the “T1/2 Int. Hom.” value is less than 30 min.
`COC(=O)[C@H](N)Cc1ccc(OP2(=O)CO[C@@H](Cn3ccc(N)nc3=O)CO2)cc1` (single isomer, unassigned) [2b (S,R)]: in [1], the “T1/2 Int. Hom.” value was 210 min.
Regarding `COC(=O)[C@H](N)Cc1ccc(OP2(=O)CO[C@@H](Cn3ccc(N)nc3=O)CO2)cc1` (single isomer, unassigned) [2b (S,S)], the half-life in data set [2] (setting [5]) is 21 min. For the same compound, the “T1/2 Int. Hom.” value in data set [1] was 72 min.
In the case of `CC(C)CNC(=O)[C@@H](N)Cc1ccc(OP2(=O)COC(Cn3cnc4c(N)ncnc43)CO2)cc1` (single isomer, unassigned) [(S,R)-1e], the negative-log IC50 (pIC50) was 5.60 in the data set with cowpox virus, 6.00 with vaccinia virus, 6.26 in [3] (read-out: IC50 HCMV) and less than 4.00 in the data set on KB cells. Besides, the “T1/2 Int. Hom.” value in data set [1] (listed as 1e (S,R)) is reported as 630 min.
As for `CC(C)CNC(=O)[C@@H](N)Cc1ccc(OP2(=O)COC(Cn3cnc4c(N)ncnc43)CO2)cc1` (single isomer, unassigned) [(S,S)-1e], the pIC50 was 5.70 in the data set with cowpox virus (Cowpox virus, HFF); 5.82 in the data set with vaccinia virus (Orthopoxvirus vaccinia, HFF); 4.46 in the data set with herpes simplex 1 (HSV-1) (read-out: IC50 HSV-1); 5.89 in [3] (read-out: IC50 HCMV); less than 4.00 with KB cells (Homo sapiens, KB, 48 h); less than 4.00 in the data set on HFF cells (Homo sapiens, HFF). The “T1/2 Int. Hom.” value in data set [1] (listed as 1e (S,S)) is listed as 114 min.
For `CC(C)OC(=O)[C@@H](N)Cc1ccc(OP2(=O)CO[C@@H](Cn3ccc(N)nc3=O)CO2)cc1` (stereo partly drawn) [2c (S,R)], the “T1/2 Int. Hom.” value in [1] is less than 30 min.
As to `CC(C)OC(=O)[C@@H](N)Cc1ccc(OP2(=O)CO[C@@H](Cn3ccc(N)nc3=O)CO2)cc1` (stereo partly drawn) [2c (S,S)], in data set [1], the “T1/2 Int. Hom.” value is recorded as less than 30 min.
With `CC(C)(C)NC(=O)[C@H](N)Cc1ccc(OP2(=O)CO[C@@H](Cn3ccc(N)nc3=O)CO2)cc1` (stereo partly drawn) [2d (S,R)], the “T1/2 Int. Hom.” value in data set [1] was 1732 min.
Still for that read-out and setting: under `CC(C)(C)NC(=O)[C@H](N)Cc1ccc(OP2(=O)CO[C@@H](Cn3ccc(N)nc3=O)CO2)cc1` (stereo partly drawn) [2d (S,S)] stands 203 min.
Turning to `Nc1nc2c(ncn2COCCO)c(=O)[nH]1` [ACV, Acyclovir, reference compound], the pIC50 in the data set with herpes simplex 1 (HSV-1) (setting [6]) is 6.22; in the data set with herpes simplex 1 (HSV-1) (read-out: IC50 HSV-1) it was 6.15.
In the case of `COC(=O)[C@@H](N)Cc1ccc(OP2(=O)CO[C@@H](Cn3cnc4c(N)ncnc43)CO2)cc1` (stereo partly drawn) [Compound 1a, Methyl(2S)-2-amino-3-(4-{[(5S)-5-[(6-amino-9H-purin-9-yl)methyl]-2-oxo-1,4,2λ^5-dioxaphosphinan-2-yl]oxy}phenyl)propanoate], the negative logarithm of the IC50 (pIC50) was 5.46 in the data set with cowpox virus (Cowpox virus, HFF); 5.52 in the data set with vaccinia virus (Orthopoxvirus vaccinia, HFF); 4.46 with herpes simplex 1 (HSV-1) (setting [6]); 6.35 in [3] (setting [7]); less than 4.00 in the data set on KB cells (Homo sapiens, KB, 48 h); less than 4.00 in the data set on HFF cells (Homo sapiens, HFF).
On to `CC(C)CNC(=O)[C@@H](N)Cc1ccc(OP2(=O)COC(Cn3cnc4c(N)ncnc43)CO2)cc1` (stereo partly drawn) [Compound 1e, (2S)-2-Amino-3-[4-({5-[(6-amino-9H-purin-9-yl)methyl]-2-oxo-1,4,2λ^5-dioxaphosphinan-2-yl}oxy)phenyl]-N-(2-methylpropyl)propanamide], for which the negative logarithm of the IC50 (pIC50) in the data set on cowpox virus (Cowpox virus, HFF) is 5.15; with vaccinia virus (Orthopoxvirus vaccinia, HFF), 5.35; in the data set with herpes simplex 1 (HSV-1) (setting [6]) it was 4.30; in data set [3] (setting [7]), 6.52; in the data set on KB cells (Homo sapiens, KB, 48 h), less than 4.00; with HFF cells (Homo sapiens, HFF), less than 4.00.
Turning to `COC(=O)[C@H](Cc1ccc(OP2(=O)CO[C@@H](Cn3cnc4c(N)ncnc43)CO2)cc1)NC(=O)[C@@H](N)C(C)C` (stereo partly drawn) [Compound 1f, Methyl(2S)-2-[(2S)-2-amino-3-methylbutanamido]-3-[4-({(5S)-5-[(6-amino-9H-purin-9-yl)methyl]-2-oxo-1,4,2λ^5-dioxaphosphinan-2-yl}oxy)phenyl]propanoate], the pIC50 in the data set on cowpox virus (Cowpox virus, HFF) was 5.10; in the data set on vaccinia virus (Orthopoxvirus vaccinia, HFF), 5.40; in the data set with herpes simplex 1 (HSV-1) (setting [6]) it was 4.46; in data set [3] (setting [7]) it was 6.52; with KB cells (Homo sapiens, KB, 48 h), less than 4.00; in the data set on HFF cells (Homo sapiens, HFF), 4.00.
As to `Nc1ccn(C[C@@H](CO)OCP(=O)(O)O)c(=O)n1` [Compound 2, (S)-HPMPC, reference compound], the pIC50 in the data set on cowpox virus (Cowpox virus, HFF) was 4.52; in the data set with cowpox virus, 4.82 and 4.70; with vaccinia virus (Orthopoxvirus vaccinia, HFF) it was 4.70; in the data set on vaccinia virus, 4.82; in data set [3] (setting [7]), 6.55; with HFF cells (Homo sapiens, HFF), 4.00.
`COC(=O)[C@@H](N)Cc1ccc(OP2(=O)CO[C@@H](Cn3ccc(N)nc3=O)CO2)cc1` (stereo partly drawn) [Compound 2a, Methyl-(2S)-2-amino-3-(4-{[(5S)-5-[(4-amino-2-oxo-2H-pyrimidin-1-yl)-methyl]-2-oxo-1,4,2λ^5-dioxaphosphinan-2-yl]oxy}phenyl)propanoate]: the pIC50 was 4.30 in the data set with cowpox virus (Cowpox virus, HFF); 5.40 in the data set on vaccinia virus (Orthopoxvirus vaccinia, HFF); 4.60 in the data set on herpes simplex 1 (HSV-1) (setting [6]); 6.64 in [3] (setting [7]); less than 4.00 in the data set with KB cells (Homo sapiens, KB, 48 h); less than 4.00 in the data set with HFF cells (Homo sapiens, HFF).
On to `COC(=O)[C@H](N)Cc1ccc(OP2(=O)CO[C@@H](Cn3ccc(N)nc3=O)CO2)cc1` (stereo partly drawn) [Compound 2b, Methyl(2R)-2-amino-3-(4-{[(5S)-5-[(4-amino-2-oxo-2H-pyrimidin-1-yl)-methyl]-2-oxo-1,4,2λ^5-dioxaphosphinan-2-yl]oxy}phenyl)propanoate], for which the pIC50 is 4.46 in the data set on cowpox virus (Cowpox virus, HFF); 4.60 with vaccinia virus (Orthopoxvirus vaccinia, HFF); 4.46 in the data set on herpes simplex 1 (HSV-1) (setting [6]); 6.70 in data set [3] (setting [7]); less than 4.00 with KB cells (Homo sapiens, KB, 48 h); less than 4.00 in the data set with HFF cells (Homo sapiens, HFF).
For `CC(C)OC(=O)[C@@H](N)Cc1ccc(OP2(=O)CO[C@@H](Cn3ccc(N)nc3=O)CO2)cc1` (stereo partly drawn) [Compound 2c], the negative logarithm of the IC50 (pIC50) with cowpox virus was 4.40; in the data set on vaccinia virus it was 4.52; in the data set with herpes simplex 1 (HSV-1) (read-out: IC50 HSV-1), 4.70; in data set [3] (read-out: IC50 HCMV), 6.92; in the data set with KB cells, less than 4.00; in the data set with HFF cells it was less than 4.00.
Turning to `CCC(C)[C@H](N)C(=O)N[C@@H](Cc1ccc(OP2(=O)CO[C@@H](Cn3ccc(N)nc3=O)CO2)cc1)C(=O)OC` (stereo partly drawn) [Compound 2f, Methyl(2S)-3-[4-({(5S)-5-[(4-amino-2-oxo-1,2-dihydropyrimidin-1-yl)methyl]-2-oxo-1,4,2λ^5-dioxaphosphinan-2-yl}oxy)phenyl]-2-[(2S)-2-amino-3-ethylbutanamido]propanoate], the negative-log IC50 (pIC50) with cowpox virus (Cowpox virus, HFF) is 4.52; with vaccinia virus (Orthopoxvirus vaccinia, HFF) it was 4.70; with herpes simplex 1 (HSV-1) (setting [6]) it was 4.82; in data set [3] (setting [7]), greater than 7.00; in the data set on KB cells (Homo sapiens, KB, 48 h), less than 4.00; with HFF cells (Homo sapiens, HFF) it was less than 4.00.
As for `Nc1ncnc2c1ncn2C[C@H]1COP(=O)(O)CO1` [Compound 6, cHPMPA, reference compound], the negative logarithm of the IC50 (pIC50) was 6.22 in the data set with cowpox virus (Cowpox virus, HFF); 6.00 with vaccinia virus (Orthopoxvirus vaccinia, HFF); 4.52 in the data set on herpes simplex 1 (HSV-1) (setting [6]); 5.89 in [3] (setting [7]); less than 4.00 in the data set with KB cells (Homo sapiens, KB, 48 h); 4.00 with HFF cells (Homo sapiens, HFF).
Turning to `CC(C)CNC(=O)[C@@H](N)Cc1ccc(OP(=O)(O)CO[C@H](CO)Cn2cnc3c(N)ncnc32)cc1` [Compound 8, 4-[(2S)-2-amino-2-[(2-methylpropyl)carbamoyl]ethyl]phenoxy({[(2S)-1-(6-amino-9H-purin-9-yl)-3-hydroxypropan-2-yl]oxy}methyl)phosphinic acid], the pIC50 was 5.52 in the data set on cowpox virus (Cowpox virus, HFF); 6.30 with vaccinia virus (Orthopoxvirus vaccinia, HFF); 4.35 with herpes simplex 1 (HSV-1) (setting [6]); 6.54 in [3] (setting [7]); less than 4.00 with KB cells (Homo sapiens, KB, 48 h); less than 4.00 in the data set with HFF cells (Homo sapiens, HFF). Also, the “activity against all these viruses” value in [4] is on record as “active”. Further, in data set [1], the “T1/2 Int. Hom.” value was “st”.
Turning to `Nc1nc(O)c2ncn(COC(CO)CO)c2n1` [DHPG, ganciclovir, reference compound], the pIC50 was 5.62 in data set [3] (setting [7]) and less than 4.00 in the data set on HFF cells (Homo sapiens, HFF).
